Experimental data published in US4094899A, “Oxaprostaglandins” (Pfizer Inc., priority 1973, dated 1978).

Assays:
[1] = tested on: guinea pig ileum; experiment: spasmogenic effect on guinea pig ileum in vitro; conditions: Cavia porcellus, read-out: Guinea pig Ileum: threshold dose for spasmogenic effect
Text: (§1) These tests include, among others, a test for effect on isolated smooth muscle from guinea pig ileum and rat uterus, a test for effect on histamine induced bronchospasm in guinea pig, a test for effects on dog blood pressure, a test for induction of diarrhea in mice, and a test for the induction of abortion in early pregnant rats.
^(d) Threshold dose for spasmogenic effect on guinea pig ileum in […]

[2] = tested on: estrogenized rat uterus; experiment: spasmogenic effect on estrogenized rat uterus in vitro; conditions: read-out: Rat Uterus: threshold dose for spasmogenic effect
Text: as §1
^(c) Threshold dose for spasmogenic effect on estrogenized rat uterus

[3] = tested on: anesthetized dog blood pressure; experiment: depressor effect on anesthetized dog blood pressure; format: in vivo; conditions: for Dog Blood Pressure: relative dose at which oxaprostaglandin derivative has similar action to PGE2 for depressor effect: anesthetized dog
Text: as §1
^(a) Relative dose at which oxaprostaglandin derivative has similar
action to PGE2 for depressor effect on anesthetized dog blood

[4] = tested on: histamine induced bronchospasm in the guinea pig; experiment: histamine induced bronchospasm in the guinea pig (aerosol); format: in vivo; conditions: for Histamine Aerosol: per cent protection for histamine induced bronchospasm: 100 μg/ml aerosol dose, guinea pig
Method: as §1
^(b) Per cent protection by 100 μg/ml aerosol dose for histamine
induced bronchospasm in the guinea pig.

[5] = tested on: mice; experiment: induction of diarrhea in mice in vivo
Text: as §1
(§2) On the basis of the difference seen in the rat uterus and guinea pig ileum tests with 19 -oxaprostaglandin E2, one would expect to have a reduction of the unpleasant gastrointestinal side effects which were encountered when natural PGE2 was employed as an abortion inducer (Lancet, 536, 1971).

[6] = target: norepinephrine stimulated lipolysis; experiment: inhibition of norepinephrine stimulated lipolysis; conditions: read-out: K: inhibition constant for norepinephrine stimulated lipolysis
Text: ^(e) Inhibition constant for norepinephrine stimulated lipolysis.

[7] = physiological tests taken together (Table I; comparison with natural prostaglandin); conditions: in words; compared with natural prostaglandin; rat uterus vs guinea pig ileum
Text: as §1, §2

[8] = tested on: early pregnant rat; experiment: induction of abortion in early pregnant rats; format: in vivo
Text: as §1, §2

| effectiveness in inducing diarrhea relative to natural PGE2 [5] [%] | Ki [6] [nM] | SMILES | minimal effective concentration [1] [µg/mL] | minimal effective concentration [2] [µg/mL] | Dog Blood Pressure: relative dose at which oxaprostaglandin derivative has similar action to PGE2 for depressor effect [3] | selectivity with regard to blood pressure effects ([3]; in words, from Table I) | Histamine Aerosol: per cent protection for histamine induced bronchospasm [4] [%] | tissue selectivity [7] | effectiveness in inducing abortion compared with natural PGE2 [8] | bronchodilator selectivity compared with natural PGE2 ([4]; in words, from Table I) |
| --- | --- | --- | --- | --- | --- | --- | --- | --- | --- | --- |
| – | – | CCOCC[C@H](O)/C=C/[C@H]1[C@H](O)CC(=O)[C@@H]1C/C=C\CCCC(=O)O [18-oxa PGE2, 9-oxo-11α,15α-dihydroxy-18-oxa-cis-5-trans-13-prostadienoic acid] | 0.1 to 0.3 | 0.1 to 0.3 | 2 | particularly selective with regard to its blood pressure effects | 3 | – | – | – |
| – | – | CCOCC[C@H](O)/C=C/[C@@H]1[C@@H](C/C=C\CCCC(=O)O)[C@@H](O)C[C@H]1O [18-oxa PGF2α, 9α,11α,15α-trihydroxy-18-oxa-cis-5-trans-13-prostadienoic acid] | 0.1 to 0.3 | 0.3 to 0.6 | – | – | – | – | – | – |
| 10 | 2500 | COCCC[C@H](O)/C=C/[C@H]1[C@H](O)CC(=O)[C@@H]1C/C=C\CCCC(=O)O [19-oxa PGE2, 9-oxo-11α,15α-dihydroxy-19-oxa-cis-5-trans-13-prostadienoic acid] | 0.1 to 0.5 | 0.05 to 0.1 | 20 | – | 19 | tissue selectivity, particularly 19-oxaprostaglandin E2 | as effective as natural PGE2 | – |
| – | – | COCCC[C@H](O)/C=C/[C@@H]1[C@@H](C/C=C\CCCC(=O)O)[C@@H](O)C[C@H]1O [19-oxa PGF2α, 9α,11α,15α-trihydroxy-19-oxa-cis-5-trans-13-prostadienoicacid] | 0.1 to 0.5 | 0.1 to 0.5 | – | – | – | – | – | – |
| – | 4000 | CCOCCC[C@H](O)/C=C/[C@H]1[C@H](O)CC(=O)[C@@H]1C/C=C\CCCC(=O)O [19-oxa-ω-homo-PGE2, 9-oxo-11α,15α-dihydroxy-19-oxa-cis-5-trans-13-w-homo-prostadienoic acid] | 0.1 | 0.1 | 4 | – | 38 | – | – | more selective bronchodilator than natural PGE2 |
| – | – | CCOCCC[C@H](O)/C=C/[C@@H]1[C@@H](C/C=C\CCCC(=O)O)[C@@H](O)C[C@H]1O [19-oxa-ω-homo-PGF2α, 9α,11α,15α-trihydroxy-19-oxa-cis-5-trans-13-ω-homoprostadienoic acid] | ≥ 0.1 | 0.06 to 0.3 | – | – | – | – | – | – |
| – | 400 | CCCCC[C@H](O)/C=C/[C@H]1[C@H](O)CC(=O)[C@@H]1C/C=C\CCCC(=O)O [PGE2, reference compound] | 0.01 to 0.03 | 0.01 to 0.03 | 1 | – | 75 | – | – | – |
